In US20250188078A1, “SMALL MOLECULE INHIBITORS OF THE CRL4 UBIQUITIN LIGASE” (Cornell University, priority 2022, published 2025):

Assays:
[1] = test system: CUL4A^high MDA-MB-468 breast cancer cells; assay: Cell killing in CUL4-high MDA-MB-468 cells (CellTiter Glo); assay type: cell-based; conditions: Homo sapiens, 192 h; MDA-MB-468 cells, 8 days treatment; read-out: EC50 CUL4-High Cells (cell killing)
Description: EC50 refers to concentration of compound that induces 50% killing of CUL4A^high MDA-MB-468 cells (see Table 1, column 6). CUL4A^high MDA-MB-468 breast cancer cells were seeded in 96 well plates. After 24 hours, cells were treated with DMSO or compounds. Change fresh medium and compounds. After 8 days treatment, cell viability was examined by using CellTiter Glo kit (Promega #7570) following the manufacturer's guidelines (https://www.promega.com/-/media/files/resources/protocols/technicalbulletins/0/celltiter-glo-luminescent-cell-viability-assay protocol.pdf?rev=0d95c232094b41daa06d0c110d1d916f&sc_lang=en, hereby incorporated by reference in its entirety for all purposes). EC50 concentration was calculated by Prism 8 XY analysis nonlinear regression (curve fit-Log(inhibitor) vs response). Lower EC50 indicates high cell killing potential in CUL4^high MDA-MB-468 cells.
CUL4A^high MDA-MB-468, CUL4^low (T47D), and MCF7 breast cancer cells were seeded in 96 well plates separately. Cells were treated with DMSO, or from 0 to 20 μM compound respectively. Replace with fresh medium and compounds every 48 hours. After 8 days treatment, cell viability was examined by CellTiter Glo kit (Promega #7570). First, transfer the appropriate volume (10 ml for Cat. #G7570) of CellTiter-Glo® Buffer into the amber bottle containing CellTiter-Glo® Substrate to reconstitute the lyophilized enzyme/substrate mixture. This forms the CellTiter-Glo® Reagent. Second, add CellTiter-Glo® Reagent in an equal volume (100 μl per well for 96-well plates) to all wells. Mix contents for 2 minutes on an orbital shaker to induce cell lysis. Incubate at room temperature for 15 minutes to stabilize luminescent signal. Then record luminescence. EC50 concentration was calculated by Prism 8 XY analysis nonlinear regression (curve fit-Log(inhibitor) vs response).

[2] = target: CUL4A-DDB1-BPB interaction (Homo sapiens (Human), UniProt Q16531); assay: AlphaLISA in vitro binding assay, CUL4A and DDB1-BPB binding; conditions: inhibition of CUL4A and DDB1-BPB binding
CUL4A-DDB1-BPB interaction, sequence (Q16531 403-706): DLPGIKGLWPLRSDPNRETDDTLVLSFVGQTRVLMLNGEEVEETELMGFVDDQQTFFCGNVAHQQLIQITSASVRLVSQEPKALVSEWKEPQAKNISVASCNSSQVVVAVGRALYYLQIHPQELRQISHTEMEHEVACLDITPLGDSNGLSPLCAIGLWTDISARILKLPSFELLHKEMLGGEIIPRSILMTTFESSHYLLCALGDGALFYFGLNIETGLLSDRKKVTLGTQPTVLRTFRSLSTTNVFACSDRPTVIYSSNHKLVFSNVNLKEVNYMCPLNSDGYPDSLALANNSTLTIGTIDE
From the text: AlphaLISA IC50 (see Table 1, column 4) means the half maximal inhibitory concentration of compound that inhibits CUL4A and DDB1-BPB binding. Our lab established and optimized 384 well-based AlphaLISA in vitro binding assay for testing small molecule inhibitory activity. Small molecule libraries were screened for compounds that disrupt CUL4A-DDB1-BPB interaction using AlphaScreen detection beads (PerkinElmer, #AL112C and #6765300) following the manufacturer's protocol (https://www.perkinelmer.com/PDFs/downloads/GDE-Alphatech.pdf, hereby incorporated by reference in its entirety for all purposes). The 384-well assay plates (Greiner Bio-one, #781075) were read in Synergy Neo2 Hybrid Multi-Mode Reader (BioTek). The IC50 was calculated by Prism 8 XY analysis nonlinear regression (curve fit-Log(inhibitor) vs response).

[3] = Dynamic light scattering (DLS) solubility assay; assay type: physicochemical; conditions: normalized intensity ratio of 25 μM compound vs DMSO, in PBS
Description: Dynamic light scattering (DLS) (see Table 1, column 3) is a tool for studying the diffusion behavior of macromolecules in solution. To profile compound solubility, DLS assay was developed for measuring aggregation of small molecule compounds. Compound stock solution was prepared in DMSO. Dilution series were made for each compound in DMSO to ensure a final 1× assay concentration range of 200 μM to 0.78 μM. For example, if the final DMSO concentration was 1%, compounds were prepared at 100× concentrations ranging from […] to 78 μM. Dilute compounds in PBS solution to final concentration. Place 60 μl/well in 96 well plates and 3 replicates for each sample. Data were collected using a DynaPro Plate Reader III (WYATT Technologies, Inc., USA). The instrument was adjusted to measure the optimal light scattering intensity according to the manufacturer's instructions. […] The ratio over 2 means (−) insoluble. The ratio below 2 means (+) soluble and around 2 means (+/−).

[4] = test system: UV-induced CUL4-dependent DDB2 degradation in MEF-F-DDB2 cells; assay: Cell-based assay for inhibition of UV-induced CUL4-dependent DDB2 degradation; parameters: key: (+) means that the normalized DDB2/α-tubulin ratio is higher in the compound treated sample than DMSO treated sample; (−) means that no change happens between compound treated sample with control sample; conditions: DDB2/α-tubulin by Western blot
Description: Cell-based assay for inhibition of UV-induced CUL4-dependent DDB2 degradation by small molecule CUL4 inhibitors (see Table 1, column 5). Briefly, MEF-F-DDB2 cells were seeded in 6-well plates. DMSO or indicated concentrations of compounds were added to MEF-F-DDB2 cells growing in serum-free medium. MEF-F-DDB2 cells were washed once with PBS and subsequently irradiated with a Philips TUV lamp (predominantly 254 nm) at a dose rate of 0.2 W/m^2. DMSO or compounds were added to MEF-F-DDB2 cells, and then cells were harvested. The cells were lysed, and equal amounts of proteins were resolved on SDS-PAGE gel and Flag-DDB2 levels were detected using anti-DDB2 (D4C4) rabbit antibody (Cell signaling, #5416S). α-tubulin (Proteintech, #66031-1-Ig) was used as an internal loading control. (+) means that the normalized DDB2/α-tubulin ratio is higher in the compound treated sample than DMSO treated sample. (−) means that no change happens between compound treated sample with control sample.

IC50 [2] [µM]	Solubility (DLS Assay) [3]	AlphaLisa IC50 [2]	Compound	EC50 [1] [µM]	Degradation Inhibition (inhibition of UV-induced DDB2 degradation) [4]
0.127	-(insoluble)		CN(c1ccc(-c2nc(C(=O)O)cc3c2[nH]c2cc(F)c(F)cc23)cc1)S(=O)(=O)c1ccccc1 [PA1-7, 6,7-difluoro-1-(4-(N-methylphenylsulfonamido)phenyl)-9H-pyrido[3,4-b]indole-3-carboxylic acid]	8.65	
	-(insoluble)	Neg	COC(=O)c1cc2c([nH]c3cc(C#N)ccc32)c(-c2ccc(N(C)S(=O)(=O)c3ccccc3)cc2)n1 [PA1-9 ESTER, methyl 7-cyano-1-(4-(N-methylphenylsulfonamido)phenyl)-9H-pyrido[3,4-b]indole-3-carboxylate]		
0.085	-(insoluble)		CN(c1ccc(-c2nc(C(=O)O)cc3c2[nH]c2cc(C#N)ccc23)cc1)S(=O)(=O)c1ccccc1 [PA1-9, 7-cyano-1-(4-(N-methylphenylsulfonamido)phenyl)-9H-pyrido[3,4-b]indole-3-carboxylic acid]	7.87	+
			O=C(O)c1cc2c([nH]c3cc(F)ccc32)c(-c2ccc(OCC3CCOCC3)cc2)n1 [PA1-11E, 7-fluoro-1-(4-((tetrahydro-2H-pyran-4-yl)methoxy)phenyl)-9H-pyrido[3,4-b]indole-3-carboxylic acid]	> 20	−
			O=C(O)c1cc2c([nH]c3cc(F)ccc32)c(-c2ccc(OCc3ccncc3)cc2)n1 [PA1-11F, 7-fluoro-1-(4-(pyridin-4-ylmethoxy)phenyl)-9H-pyrido[3,4-b]indole-3-carboxylic acid]	> 20	−
			O=C(O)c1cc2c([nH]c3cc(F)ccc32)c(-c2ccc(OCc3cccnc3)cc2)n1 [PA1-11G, 7-fluoro-1-(4-(pyridin-3-ylmethoxy)phenyl)-9H-pyrido[3,4-b]indole-3-carboxylic acid]	> 20	−
	-(insoluble)		O=C(O)c1cc2c([nH]c3cc(F)ccc32)c(-c2ccc(OCc3ccccn3)cc2)n1 [PA1-11H, 7-fluoro-1-(4-(pyridin-2-ylmethoxy)phenyl)-9H-pyrido[3,4-b]indole-3-carboxylic acid]		−
			O=C(O)c1cc2c([nH]c3cc(F)ccc32)c(-c2ccc(OCc3ccsc3)cc2)n1 [PA1-11I, 7-fluoro-1-(4-(thiophen-3-ylmethoxy)phenyl)-9H-pyrido[3,4-b]indole-3-carboxylic acid]	14	−
			O=C(O)c1cc2c([nH]c3cc(F)ccc32)c(-c2ccc(OCc3cscn3)cc2)n1 [PA1-11K, 7-fluoro-1-(4-(thiazol-4-ylmethoxy)phenyl)-9H-pyrido[3,4-b]indole-3-carboxylic acid]	> 20	−
2.4			Cc1cc(N(C)S(=O)(=O)c2ccccc2)ccc1-c1nc(C(=O)O)cc2c1[nH]c1cc(F)ccc12 [PA1-12A, 7-fluoro-1-(2-methyl-4-(N-methylphenylsulfonamido)phenyl)-9H-pyrido[3,4-b]indole-3-carboxylic acid]	9.84	−
		Neg	COC(=O)c1cc2c([nH]c3cc(F)ccc32)c(-c2ccc(N(C)S(=O)(=O)c3ccc(C#N)cc3)cc2)n1 [PA1-13A-2 ESTER]	> 20	+
2.51			CN(c1ccc(-c2nc(C(=O)O)cc3c2[nH]c2cc(F)ccc23)cc1)S(=O)(=O)c1ccc(C#N)cc1 [PA1-13A-2, 1-(4-((4-cyano-N-methylphenyl)sulfonamido)phenyl)-7-fluoro-9H-pyrido[3,4-b]indole-3-carboxylic acid]	3.54	−
0.38			CN1CCN(c2ccc(S(=O)(=O)N(C)c3ccc(-c4nc(C(=O)O)cc5c4[nH]c4cc(F)ccc45)cc3)cc2)CC1 [PA1-13A-7, 7-fluoro-1-(4-((N-methyl-4-(4-methylpiperazin-1-yl)phenyl)sulfonamido)phenyl)-9H-pyrido[3,4-b]indole-3-carboxylic acid]	14.5	−
	-(insoluble)	Neg	COC(=O)c1cc2c([nH]c3cc(F)cc(C)c32)c(-c2ccc(N(C)S(=O)(=O)c3ccccc3)cc2)n1 [PA1-14 ESTER, methyl 1-[4-[benzenesulfonyl(methyl)amino]phenyl]-7-fluoro-5-methyl-9H-pyrido[3,4-b]indole-3-carboxylate]		−
3.43 ± 1.57	-(insoluble)		Cc1ccc(-c2nc(C(=O)O)cc3c2[nH]c2ccccc23)cc1 [PA2]		+
1.41 ± 0.31	+/−		O=C(O)c1cc2c([nH]c3ccccc32)c(-c2ccc(F)cc2)n1 [PA3]		+
2.34 ± 0.77	-(insoluble)		O=C(O)c1cc2c([nH]c3ccccc32)c(-c2cccc(F)c2)n1 [PA5]		
10.2 ± 3.33	-(insoluble)		Cc1cccc(-c2nc(C(=O)O)cc3c2[nH]c2ccccc23)c1 [PA7]		
7.75 ± 1.82	-(insoluble)		COc1cccc(-c2nc(C(=O)O)cc3c2[nH]c2ccccc23)c1 [PA8]		
	-(insoluble)	Neg	NC(=O)c1cc2c([nH]c3ccccc32)c(-c2ccc([N+](=O)[O-])cc2)n1 [PA9, 1-(4-nitrophenyl)-9H-pyrido[3,4-b]indole-3-carboxamide]		+
2.01 ± 0.44	-(insoluble)		N#Cc1ccc(-c2nc(C(=O)O)cc3c2[nH]c2ccccc23)cc1 [PA19]		+
2 ± 0.38	-(insoluble)		O=C(O)c1cc2c([nH]c3ccccc32)c(-c2cc(F)c(F)c(F)c2)n1 [PA33]		
0.36 ± 0.04	-(insoluble)		CS(=O)(=O)c1ccc(-c2nc(C(=O)O)cc3c2[nH]c2ccc(F)cc23)cc1 [PA71]		−
1.83 ± 0.09	-(insoluble)		COc1ccc2[nH]c3c(-c4ccc(S(C)(=O)=O)cc4)nc(C(=O)O)cc3c2c1 [PA74]		+
